We go through 15 compounds from patent publication US8173609B2, “Macrolides useful against inflammatory and allergic diseases” (Basilea Pharmaceutica AG, priority 2006, dated 2012).

The first assay relates to human PDE4. As to the kind of experiment: PDE4 inhibition, in vitro enzymatic IMAP FP assay. It counts as biochemical. As to conditions: PDE4 partially purified from human monocytic U-937 cells; fluorescence polarization. Here is the method:
PDE4 specifically hydrolyzes cAMP and releases the product AMP. The potency of PDE inhibition by said agents was determined in an in vitro enzymatic assay. The assay is commercially available (IMAP™ FP assay Molecular Devices Corp.) and was optimized for the use of human PDE4. Fluorescently labeled cAMP was hydrolyzed by PDE4 and in a second step, binding of labeled product to a large binding partner allowed product detection by fluorescence polarization (FP) measurements.
PDE4 was partially purified from undifferentiated human monocytic cells (U-937) according to Thorpy et al. 1992 (J. Pharmacol. Exp. Ther. 263: 1195). […] In addition, PDE4 preparations were validated by inhibition studies with PDE4-specific and unspecific PDE inhibitors.
Stock solutions of test compounds were made in DMSO and diluted in assay buffer (10 mM Tris-HCl, 10 mM MgCl2, 0.1% BSA 0.05% NaN3, pH 7.2) to the desired concentrations. The solutions used in the assay contained test compound in assay buffer with 2% DMSO.
10 μl of substrate (at a concentration recommended by the manufacturer) were mixed with 5 μl of appropriately diluted PDE and 5 μl of test compound solution. 5 μl of reaction buffer with 2% DMSO were used for control reactions. […] After incubation for 90 minutes at room temperature, 60 μl of binding reagent were added as specified by the manufacturer. Binding was allowed to proceed for 30 minutes and fluorescence polarization was measured. Dose dependence of PDE inhibition was measured by assaying dilution series of test compounds in duplicates. IC50 values were determined from the measured activities by curve fitting.
Background: In fluorescence polarisation assays a small probe gives low polarisation when free and higher when bound to something large.
For `CCC1OC(=O)C(C)C(OC2CC(C)(OC)C(O)C(C)O2)C(C)C(OC2OC(C)CC(N(C)C)C2O)C(C)(OC)CC(C)C(=O)C(C)C2C(SCCCc3c(C(=O)Nc4ccncc4)ccc(OC)c3OC)C(=O)OC12C` (stereo not shown) [Example 7, Compound of Formula I where R1 is [3-[2,3-dimethoxy-6-(pyridin-4-yl-amino-carbonyl)phenyl]-propyl]thio, R2 and R3 taken together form a C═O Group and R4 is Methyl], the IC50 – broadly, the point on the concentration scale where inhibition reaches its midpoint – came out at 7.6 µM.

Compound `CCC1OC(=O)C(C)C(OC2CC(C)(OC)C(O)C(C)O2)C(C)C(OC2OC(C)CC(N(C)C)C2O)C(C)(OC)CC(C)C(=O)C(C)C2C(SCCN(C(=O)c3ccncc3)c3ccc(OC)c(OC4CCCC4)c3)C(=O)OC12C` (stereo not shown) [Example 3, Compound of Formula I where R1 is [2-[(3cyclopentyloxy-4-methoxy-phenyl)-(pyridin-4-yl-carbonyl)-amino]ethyl]thio, R2 and R3 taken together form a C═O Group and R4 is Methyl] registered a half-maximal inhibitory concentration (IC50) of 3.4 µM.

`CC[C@H]1OC(=O)[C@H](C)[C@@H](O[C@H]2C[C@@](C)(OC)[C@@H](O)[C@H](C)O2)[C@H](C)[C@@H](O[C@@H]2O[C@H](C)C[C@H](N(C)C)[C@H]2O)[C@](C)(OC)C[C@@H](C)C(=O)[C@H](C)[C@H]2[C@H](SCCn3cnc4c(N)nc(NCc5ccncc5)nc43)C(=O)O[C@@]21C` [Example 13, Compound of Formula I where R1 is [2-[6-amino-2-[[(4-pyridyl)methyl]amino]-purin-9-yl]ethyl]thio, R2 and R3 taken together form a C═O Group and R4 is Methyl] showed a half-maximal inhibitory concentration (IC50) of 2.6 µM.

`CCC1OC(=O)C(C)C(OC2CC(C)(OC)C(O)C(C)O2)C(C)C(OC2OC(C)CC(N(C)C)C2O)C(C)(OC)CC(C)C(=O)C(C)C2C(SCCn3c(Nc4cccnc4)nc4c(N)ncnc43)C(=O)OC12C` (stereo not shown) [Example 2, compound of formula I where R1 is [2-[6-Amino-8-(pyridin-3-ylamino)-purin-9-yl]ethyl]thio, R2 and R3 taken together form a C═O Group and R4 is Methyl] displayed an IC50 of 3.9 µM.

“compound of formula I where R1 is [3-[4-Amino-7-(pyridin-4-yl-amino-carbonyl)-imidazo[4,5-c]pyridin-1-yl]-propyl]thio, R2 and R3 taken together form a C═O Group and R4 is Methyl [Example 8]” yielded an IC50 of 4.7 µM.

Take `CC[C@H]1OC(=O)[C@H](C)[C@@H](O[C@H]2C[C@@](C)(OC)[C@@H](O)[C@H](C)O2)[C@H](C)[C@@H](O[C@@H]2O[C@H](C)C[C@H](N(C)C)[C@H]2O)[C@](C)(OC)C[C@@H](C)C(=O)[C@H](C)[C@H]2[C@H](SCCn3cnc4c(N)nc(NCc5cccnc5)nc43)C(=O)O[C@@]21C` [Example 12, Compound of Formula I where R1 is [2-[6-amino-2-[[(3-pyridyl)methyl]amino]-purin-9-yl]ethyl]thio, R2 and R3 taken together form a C═O Group and R4 is Methyl]: the midpoint of inhibition, the IC50, lay at 3.8 µM.

`CC[C@H]1OC(=O)[C@H](C)[C@@H](O[C@H]2C[C@@](C)(OC)[C@@H](O)[C@H](C)O2)[C@H](C)[C@@H](O[C@@H]2O[C@H](C)C[C@H](N(C)C)[C@H]2O)[C@](C)(OC)C[C@@H](C)C(=O)[C@H](C)[C@H]2[C@H](SCCn3cnc4c(N)ncc(C(=O)Nc5c(Cl)cncc5Cl)c43)C(=O)O[C@@]21C` [Example 11, compound of formula I where R1 is [2-[4-amino-7-(3,5-dichloro-pyridin-4-yl-amino-carbonyl)-imidazo[4,5-c]pyridin-1-yl]-ethyl]thio, R2 and R3 taken together form a C═O Group and R4 is Methyl] displayed an IC50 of 0.008 µM.

Regarding “compound of formula I where R1 is [2-[(5-(3,5-dichloro-pyridin-4-yl-amino-carbonyl)-1-ethyl-1H-pyrazolo[3,4-b]pyridin-4-ylamino]-ethyl]thio, R2 and R3 taken together form a C═O Group and R4 is Methyl [Example 6]”, the concentration for half-maximal inhibition (IC50) came to 0.37 µM.

As to `CCC1OC(=O)C(C)C(OC2CC(C)(OC)C(O)C(C)O2)C(C)C(OC2OC(C)CC(N(C)C)C2O)C(C)(OC)CC(C)C(=O)C(C)C2C(SCCCn3cnc4c(N)ncc(C(=O)NCC(=O)OC)c43)C(=O)OC12C` (stereo not shown) [Example 9, compound of formula I where R1 is [3-[4-amino-7-([methoxycarbonylmethyl]-amino-carbonyl)-imidazo[4,5-c]pyridin-1-yl]-propyl]thio, R2 and R3 taken together form a C═O Group and R4 is Methyl], the IC50 is 24.2 µM. Against the preceding compound, the IC50 is about 65-fold higher.

Consider `CSCCn1cnc2c(N)ncc(C(=O)Nc3c(Cl)cncc3Cl)c21` [reference compound], for which the midpoint of inhibition, the IC50, lay at 3.6 µM.

On to `CCC1OC(=O)C(C)C(OC2CC(C)(OC)C(O)C(C)O2)C(C)C(OC2OC(C)CC(N(C)C)C2O)C(C)(OC)CC(C)C(=O)C(C)C2C(SCCN(Cc3cccnc3)c3ccc(OC)c(OC4CCCC4)c3)C(=O)OC12C` (stereo not shown) [Example 5, Compound of Formula I where R1 is [2-[(3-cyclopentyloxy-4-methoxy-phenyl)-(pyridin-3-ylmethyl)-amino]-ethyl]thio, R2 and R3 taken together form a C═O Group and R4 is Methyl], for which the midpoint of inhibition, the IC50, lay at 0.85 µM. Against the preceding compound, the IC50 is about 4.2-fold lower.

`CCC1OC(=O)C(C)C(OC2CC(C)(OC)C(O)C(C)O2)C(C)C(OC2OC(C)CC(N(C)C)C2O)C(C)(OC)CC(C)C(=O)C(C)C2C(SCCN(Cc3ccncc3)c3ccc(OC)c(OC4CCCC4)c3)C(=O)OC12C` (stereo not shown) [Example 4, compound of formula I where R1 is [2-[(3-cyclopentyloxy-4-methoxy-phenyl)-(pyridin-4-ylmethyl)-amino]-ethyl]thio, R2 and R3 taken together form a C═O Group and R4 is Methyl] returned an IC50 of 0.28 µM.

For the compound `CCC1OC(=O)C(C)C(OC2CC(C)(OC)C(O)C(C)O2)C(C)C(OC2OC(C)CC(N(C)C)C2O)C(C)(OC)CC(C)C(=O)C(C)C2C(SCCn3c(CCc4cccnc4)nc4c(N)ncnc43)C(=O)OC12C` (stereo not shown) [Example 1, compound of formula I where R1 is [2-[6-Amino-8-(2-pyridin-3-yl-ethyl)-purin-9-yl]ethyl]thio, R2 and R3 taken together form a C═O group and R4 is methyl], the half-maximal inhibitory concentration (IC50) is 13.4 µM.

`CC[C@H]1OC(=O)[C@H](C)[C@@H](O[C@H]2C[C@@](C)(OC)[C@@H](O)[C@H](C)O2)[C@H](C)[C@@H](O[C@@H]2O[C@H](C)C[C@H](N(C)C)[C@H]2O)[C@](C)(OC)C[C@@H](C)C(=O)[C@H](C)[C@H]2[C@H](SCCn3cnc4c(N)ncc(C(=O)Nc5ccncc5)c43)C(=O)O[C@@]21C` [Example 10, Compound of Formula I where R1 is [2-[4-amino-7-(pyridin-4-yl-amino-carbonyl)-imidazo[4,5-c]pyridin-1-yl]-ethyl]thio, R2 and R3 taken together form a C═O Group and R4 is Methyl] registered an IC50 of 1 µM.

The same assay, now with this note: ratio of Example 11 IC50 to IC50 of free substituent drawing 48.
Regarding `CC[C@H]1OC(=O)[C@H](C)[C@@H](O[C@H]2C[C@@](C)(OC)[C@@H](O)[C@H](C)O2)[C@H](C)[C@@H](O[C@@H]2O[C@H](C)C[C@H](N(C)C)[C@H]2O)[C@](C)(OC)C[C@@H](C)C(=O)[C@H](C)[C@H]2[C@H](SCCn3cnc4c(N)ncc(C(=O)Nc5c(Cl)cncc5Cl)c43)C(=O)O[C@@]21C` [Example 11, compound of formula I where R1 is [2-[4-amino-7-(3,5-dichloro-pyridin-4-yl-amino-carbonyl)-imidazo[4,5-c]pyridin-1-yl]-ethyl]thio, R2 and R3 taken together form a C═O Group and R4 is Methyl], the “IC50(PDE4) relative to the IC50(PDE4) for the macrolide substituent in free form” value is “about one five hundredth”.

Still in this assay, the particulars now being: up to a concentration of 50 μM in the assay used in the examples.
As for `CC[C@H]1OC(=O)[C@H](C)[C@@H](O[C@H]2C[C@@](C)(OC)[C@@H](O)[C@H](C)O2)[C@H](C)[C@@H](O[C@@H]2O[C@H](C)C[C@H](N(C)C)[C@H]2O)[C@](C)(OC)C[C@@H](C)C(=O)[C@H](C)[C@H]2[C@H](SC)C(=O)O[C@@]21C` [reference compound], the PDE4-inhibiting activity result is reported as “does not show any PDE4-inhibiting activity”.
